Test results reported in US9212396B2, “Materials and methods useful for affecting tumor cell growth, migration and invasion” (The Ohio State University, priority 2009, dated 2015).

How the values were obtained:
Assay type in all cases: cell-based, human
PTEN and TIMP3 [1] = experiment: Western blot of PTEN and TIMP3 in Snu-387 cells; conditions: Snu-387 cells after transfection
Protocol: (§1) Total proteins from NSCLC and HCC cells were extracted with radioimmuno-precipitation assay (RIPA) buffer ([…] NaCl, […] Tris-HCl, pH 7.5, 1% Triton, 0.1% SDS, 0.1% sodium deoxycholate and 1% Nonidet P40). Sample extract (50 μg) was resolved on 7.5-12% SDS-polyacrylamide gels (PAGE) using a mini-gel apparatus (Bio-Rad Laboratories) and transferred to Hybond-C extra nitrocellulose. Membranes were blocked for 1 h with 5% nonfat dry milk in Tris-buffered saline containing 0.05% Tween 20, incubated overnight with primary antibody, washed and incubated with secondary antibody, and visualized by chemiluminescence.
(§2) The following primary antibodies were used: anti-PTEN, anti-c-Jun, anti-p-c-Jun, anti-Fos, anti-p-JNK, anti-MMP3, anti-Mc1-1 (Santa Cruz), anti-TIMP3 (Millipore) anti-PI3K (BD Biosciences), anti-ERKs, anti-phospho ERKs, anti-AKT, anti-p-AKT, anti-GSK3b, anti-p-GSK3b (Ser9), anti-PAK1 anti-caspase-8,-3 and -9, anti-PARP, anti-cytochrome c (Cell signaling) and anti-MMP9, anti-FADD (Abcam), anti-1-actin antibody (Sigma). A secondary anti-rabbit or anti-mouse immunoglobulin G (IgG) antibody peroxidase conjugate (Chemicon) was used.
(§3) 2′-O-me-GFP miR (5′-[…] [SEQ ID No:17]) was used as control. Cells were grown in six well plate (1.7×10^6 per well) for 24 h and transfected 100 nmoli/L/well of 2′-O-me-oligoribonucleotides using lipofectamine 2000. […]

Calu-1 cells [2] = experiment: Caspase 3/7 assay of TRAIL-induced apoptosis in Calu-1 cells; conditions: Calu-1 cells transfected 72 h, control 2′-O-me-scrambled miR
Protocol: (§4) Cells were grown in six well plate (1.7×10^6 per well) for 24 h and transfected 100 nmoli/L/well of 2′-O-me-oligoribonucleotides using lipofectamine 2000. RNA and proteins were extracted after 72 h from the transfection.
(§5) Cells were plated in 96-well plates in triplicate and incubated at 37° C. in a 5% CO2 incubator. Super-Killer TRAIL (Alexis Biochemicals) was used for 24-48 h at 400 ng ml-1. Cell viability was examined with 3-(4,5-dimethylthiazol-2-yl)-2,5-dipheniltetrazolium bromide (MTT)-Cell Titer 96 AQueous One Solution Cell Proliferation Assay (Promega), according to the manufacturer's protocol. Metabolically active cells were detected by adding 20 μl of MTT to each well. After 1 h of incubation, the plates were analyzed in a Multilabel Counter (Bio-Rad Laboratories). Apoptosis was assessed using Annexin V-FITC apoptosis detection kits followed by flowcytometric analysis and caspase 3/7 activity. […] Statistical analysis was done using two sample t test, assuming equal variance, and P value was calculated based on two-tailed test. For detection of caspase 3/7 activity, cells were cultured in 96-well plates and treated with TRAIL 400 ng/ml and analyzed using Caspase-Glo 3/7 Assay kit (Promega) according to the manufacturer's instructions. Continuous variables are expressed as mean values±standard deviation (s.d.).

PTEN and TIMP3 [3] = experiment: Western blot of PTEN and TIMP3 in Calu-1 cells; conditions: Calu-1 cells after transfection
Protocol: as §1, §2, §3

AKT pathway = experiment: Western blots of AKT pathway in Snu-387 cells; conditions: Snu-387 cells after knockdown
Protocol: as §1, §2, §3

Calu-1 cells [4] = experiment: Migration and invasion assay in Calu-1 cells; conditions: Calu-1 cells after transfection
Protocol: (§6) Transwell insert chambers with […] porous membrane (Greiner bio-one) were used for the assay. Cells were washed three times with PBS and added to the top chamber in serum-free media. The bottom chamber was filled with media containing 10% FBS. Cells were incubated for 24 h at 37° C. in a 5% CO2 humidified incubator. To quantify migrating cells, cells on the top chamber were removed by using a cotton-tipped swab, and the migrated cells were fixed in PBS, 25% glutaraldehyde and stained with Crystal Violet stain, visualized under a phase-contrast microscope, and photographed. Cristal violet-stained cells were moreover solubilized in acetic acid and methanol (1:1) and absorbance was measured at 595 nm. The results are means of three independent experiments±S.D.
(§7) H460 and SK-Hep-1 cells were placed into the top chamber of a BD Falcon HTS FluoroBlok insert with a membrane containing […] pores (BD Biosciences) in […] of serum-free Dulbecco's modified Eagle medium in triplicate. […] The fluorescence of migrated cells was quantified using a fluorometer at excitation wavelengths of 485 nm and emission wavelengths of 530 nm and expressed as arbitrary fluorescence units. Data are expressed as mean±standard error of 4 separate determinations.

Snu-387 cells [5] = experiment: Caspase 3/7 assay of TRAIL-induced apoptosis in Snu-387 cells; conditions: Snu-387 cells transfected 72 h, control 2′-O-me-scrambled miR
Protocol: as §4, §5

Snu-387 cells [6] = experiment: Migration and invasion assay in Snu-387 cells; conditions: Snu-387 cells after transfection
Protocol: as §6, §7

PTEN and TIMP3 [7] = experiment: Western blot of PTEN and TIMP3 in Sk-Hep1 cells; conditions: Sk-Hep1 cells upon over-expression
Protocol: as §1, §2

H460 cells [8] = experiment: Flow cytometric cell cycle analysis of H460 cells; conditions: H460 transfected cells, 72 h
PTEN and TIMP3 [9] = experiment: Western blot of PTEN and TIMP3 in H460 cells; conditions: 72 h, compared to scrambled pre-miR
Protocol: as §1, §2

Sk-Hep1 cells = experiment: Migration and invasion assay in Sk-Hep1 cells; conditions: Sk-Hep1 cells after transfection
Protocol: as §6, §7

PTEN and TIMP3 mRNA = experiment: qRT-PCR of PTEN and TIMP3 mRNA in H460 cells
[10] = tested on: AKT/ERKs pathways and Metallopeptidases; experiment: Western blots of AKT/ERKs pathways and metallopeptidases in H460 cells; conditions: H460 cells after forced expression
Protocol: as §1, §2

PTEN and TIMP3 3′ UTRs = experiment: 3′UTR luciferase reporter assay in MEG01 cells; conditions: wild type 3′ UTRs
Excerpt: The 3′ UTR of the human PTEN and TIMP3 genes were PCR amplified using the following primers: PTEN Fw 5′-TCTAGAGACTCTGATCCAGAGAATGAACC-3′ [SEQ ID No:1] and PTEN Rw 5′-TCTAGAGTTGCCACAAGTGCAAAGGGGTAGGATGTG-3′ [SEQ ID No:2]; TIMP3 Fw 5′-TCTAGACTGGGCAAAGAAGGGTCTTTCGCAAAGC-3′ [SEQ ID No:3] and TIMP3 Rw 5′ TCTAGATTCCAATAGGGAGGAGGCTGGAGGAGTCTC-3′ [SEQ ID No:4] and cloned downstream of the […] luciferase stop codon in pGL3 control vector (Promega), giving rise to the p3′UTR-PTEN and p3′UTR-TIMP3 plasmids.
These constructs were used to generate, by inverse PCR, the p3′-UTRmut-PTEN plasmid-primers: Fw: 5′-GTTGAAAAAAGGTTGGGGGCGGGTGTCATGTATATAC-3 [SEQ ID No:5]; Rw: 5′-GTATATACATGACACCCGCCCCCAACCTTTTTTCAAC-3′[SEQ ID No:6]; p3′-UTRmut-TIMP3 plasmid-primers: Fw: 5′-GTATAATTTAAAATCATTGGGCGGCGGGAGACACTTCTGTATTTC-3′ [SEQ ID No:7]; Rw: 5′-GAAATACAGAAGTGTCTCCCGCCGCCCAATGATTTTAAATTATAC-3′ [SEQ ID No:8].
MeG01 cells were cotransfected with 1 μg of p3′UTR-PTEN or p3′UTR-TIMP3 and with p3′UTRmut-PTEN or p3′ UTR TIMP3 plasmids and 1 μg of a Renilla luciferase expression construct pRL-TK (Promega) by using Lipofectamine 2000 (Invitrogen). Cells were harvested 24 h post-transfection and assayed with Dual Luciferase Assay (Promega) according to the manufacturer's instructions. […]

H460 cells [11] = experiment: Migration and invasion assay in H460 cells; conditions: H460 cells after transfection
Protocol: as §6, §7

c-Jun, PTEN and TIMP3 = experiment: Western blot in Huh7 cells after anisomycin
Protocol: as §1, §2

miR-221 and miR-222 = experiment: qRT-PCR of miR-221 and miR-222 in Huh7 cells after anisomycin; design: dose or concentration left out as unconfirmed
Protocol: Real-time PCR was performed using a standard TaqMan PCR Kit protocol on an Applied Biosystems 7900HT Sequence Detection System (Applied Biosystems). The 10 μl PCR reaction included 0.67 μl RT product, 1 μl TaqMan Universal PCR Master Mix (Applied Biosystems), […]. The reactions were incubated in a 96-well plate at 95° C. for […], followed by 40 cycles of 95° C. for 15 s and 60° C. for 1 min. All reactions were run in triplicate. The threshold cycle (CT) is defined as the fractional cycle number at which the fluorescence passes the fixed threshold. The comparative CT method for relative quantization of gene expression (Applied Biosystems) was used to determine miRNA expression levels. The y axis represents the 2(-CT), or the relative expression of the different miRs. miRs expression was calculated relative to U44 and U48 rRNA and multiplied by 104. Experiments were carried out in triplicate for each data point, and data analysis was performed by using software (Bio-Rad).

Compound	PTEN and TIMP3 protein level (western blot) (PTEN and TIMP3 [1])	sensitivity to TRAIL-induced apoptosis (caspase 3/7 assay) (Calu-1 cells [2])	PTEN and TIMP3 protein levels (western blot) (PTEN and TIMP3 [3])	AKT pathway (western blots) (AKT pathway)	cell migration and invasion (Calu-1 cells [4])	sensitivity to TRAIL-induced apoptosis (caspase 3/7 assay) (Snu-387 cells [5])	cell migration and invasion (Snu-387 cells [6])	other results
5′-gaaacccagcagacaauguagcu (antisense GAAACCCAGCAGACAAUGUAGCU; all 2'-O-methyl, backbone not given here) [2′-O-me-anti-miR-221]	increased the protein level of PTEN and TIMP3	considerably sensitized these cells to TRAIL-induced apoptosis	increased the protein levels of PTEN and TIMP3	inhibition of the AKT pathway	a decrease in cell migration and invasion	considerably sensitized these cells to TRAIL-induced apoptosis	a decrease in cell migration and invasion	–
miR-222: microRNA transfected (100 nM) for enforced expression (GAGACCCAGTAGCCAGATGTAGCT; listed as DNA, chemistry not given here)	–	–	–	–	–	–	–	PTEN and TIMP3 proteins (western blot) (PTEN and TIMP3 [7]): reduced; cell cycle distribution (H460 cells [8]): a decrease of G1 and a corresponding increase of the S and G2-M phases; endogenous levels of PTEN and TIMP3 (western blot) (PTEN and TIMP3 [9]): significantly reduced the endogenous levels of PTEN and TIMP3; migratory and invasive capabilities (Sk-Hep1 cells): significant increase; down-regulation of TIMP3 mRNA (qRT-PCR) (PTEN and TIMP3 mRNA; H460 cells after enforced expression): not observed; PTEN mRNA levels (qRT-PCR) (PTEN and TIMP3 mRNA; H460 cells after forced expression): strongly reduced; activation of AKT/ERKs pathways and metallopeptidases (western blots) [10]: induces the activation of the AKT/ERKs pathways and Metallopeptidases; relative luciferase activity of PTEN and TIMP3 3′ UTR reporter constructs (PTEN and TIMP3 3′ UTRs): significantly affected luciferase expression; migratory and invasive capabilities (H460 cells [11]): significant increase
5′-gagacccagtagccagatgtagct (antisense GAGACCCAGTAGCCAGATGTAGCT; all 2'-O-methyl, backbone and T or U not given here) [2′-O-me-anti-miR-222]	increased the protein level of PTEN and TIMP3	considerably sensitized these cells to TRAIL-induced apoptosis	increased the protein levels of PTEN and TIMP3	inhibition of the AKT pathway	a decrease in cell migration and invasion	considerably sensitized these cells to TRAIL-induced apoptosis	a decrease in cell migration and invasion	–
COc1ccc(C[C@H]2NC[C@H](O)[C@H]2OC(C)=O)cc1 [anisomycin]	–	–	–	–	–	–	–	PTEN and TIMP3 expression levels (c-Jun, PTEN and TIMP3; Huh7 cells after anisomycin): decreased drastically; c-Jun activation (c-Jun, PTEN and TIMP3; Huh7 cells, total lysate, western blot): induced c-Jun activation; miR-221 expression increase (qRT-PCR) (miR-221 and miR-222): 80%; miR-222 expression increase (qRT-PCR) (miR-221 and miR-222): 40%
